Laboratory results: the NIST ThermoML archive (doi:10.1007/s10765-009-0667-2)

Test: xn = mol fraction of the nth substance listed
Settings: 101 kPa, Liquid; for mass density: Vibrating tube method

CCc1ccccc1 [ethylbenzene] + c1ccccc1
Settings	mass density, 308.15 K [kg/m3]	mass density, 313.15 K [kg/m3]	viscosity, 308.15 K [mPa·s]	viscosity, 313.15 K [mPa·s]
x2 = 0	853.7	849.5	0.5652	0.5294
x2 = 0.0877	854.1	849.8	0.5584	0.5282
x2 = 0.1855	854.6	850.2	0.5563	0.5234
x2 = 0.295	855.2	850.8	0.5472	0.5172
x2 = 0.4137	856	851.5	0.5392	0.5096
x2 = 0.498	856.6	852.1	0.5382	0.508
x2 = 0.5965	857.5	852.8	0.5382	0.5039
x2 = 0.7108	858.7	853.9	0.5308	0.4996
x2 = 0.7904	859.7	854.8	0.5263	0.4954
x2 = 0.8983	861.2	856.2	0.5309	0.4949

Cc1ccccc1 [toluene] + C1CCCCCCC1
x1 = 1
Settings	mass density [kg/m3]	viscosity [mPa·s]
308.15 K	852.8	0.494
313.15 K	848.3	0.4676

C1CCCCCCC1 [cyclooctane] + CCc1ccccc1
Settings	mass density, 308.15 K [kg/m3]	mass density, 313.15 K [kg/m3]	viscosity, 308.15 K [mPa·s]	viscosity, 313.15 K [mPa·s]
x2 = 0	823.6	819.7	1.803	1.636
x2 = 0.0907	824.8	820.9	1.487	1.356
x2 = 0.2033	827.1	823.2	1.206	1.11
x2 = 0.3072	829.5	825.6	1.022	0.9578
x2 = 0.3701	831.2	827.2	0.9433	0.8765
x2 = 0.4761	834.2	830.2	0.8369	0.7835
x2 = 0.5798	837.5	833.4	0.7568	0.7089
x2 = 0.7008	841.7	837.6	0.6736	0.6403
x2 = 0.7922	845.1	840.9	0.6351	0.5979
x2 = 0.8908	849	844.8	0.5958	0.5629

Cc1ccccc1 [toluene] + CCCCCCC
Settings	mass density, 308.15 K [kg/m3]	mass density, 313.15 K [kg/m3]	viscosity, 308.15 K [mPa·s]	viscosity, 313.15 K [mPa·s]
x2 = 0	852.8	848.3	0.494	0.4676
x2 = 0.0901	830.9	826.5	0.4631	0.4392
x2 = 0.1949	807	802.6	0.4406	0.4129
x2 = 0.299	786.6	782.2	0.415	0.3944
x2 = 0.3959	765.9	761.6	0.3967	0.377
x2 = 0.4836	749.6	745.4	0.3861	0.3668
x2 = 0.5809	732.8	728.6	0.3811	0.3562
x2 = 0.6809	716.6	712.5	0.3666	0.3488
x2 = 0.792	699.8	695.6	0.3575	0.341
x2 = 0.8884	686.1	682	0.3605	0.3367
